Consider 5 compounds from patent publication US8124743B2, “Purification of a bivalently active antibody using a non-chromatographic method” (President and Fellows of Harvard College, priority 2006, dated 2012).

Several values for one entry are separate records, joined by “and”; a condition that tells them apart may be missing. Equal entries are not always repeated. Where two headings read alike, the source gives them in different places.

Experiment [1] has as its target IgG from clone (LO-DNP-2), anti-DNP. As to the kind of experiment: Fluorescence titration (tryptophan quenching) for the monovalent dissociation constant. It counts as binding, rat. To be noted: read-out: monovalent dissociation constant (Kd^affinity). The method, then:
Determination of dissociation constant of antibody and 2,4-DNP. The binding of DNP derivatives to anti-DNP quenches the fluorescence of tryptophan residues of the antibody. We conducted a fluorescence titration to determine the monovalent dissociation constant (Kd^affinity) of the IgG from clone (LO-DNP-2) for Ac2DNP-Lys, and obtained a value of 0.40±0.08 nM.

Experiment [2] deals with rat anti-2,4-dinitrophenyl IgG (IgG^DNP, clone LO-DNP-2). As to the kind of experiment: Monovalent dissociation constant of hapten for anti-2,4-DNP IgG, method not given. In kind it is binding. To be noted: read-out: monovalent Kd (Kd^affinity) of hapten for IgG^DNP.
For experiment [3], the system named is anti-2,4-DNP IgG (clone LO-DNP-2). As to the kind of experiment: SE-HPLC of formation and dissociation of cyclic IgG aggregates. It counts as biochemical, rat. The note with it: for dissociation of IgG aggregates by excess monovalent hapten: about 1 mM monovalent hapten, SE-HPLC. As for the experimental part: We used size-exclusion chromatography (SE-HPLC) to follow the purification process. This analytical technique has the advantage that we can resolve monomeric, dimeric, trimeric, and tetrameric antibody aggregates on the column. It has the disadvantage that these aggregates must be kinetically stable (in the absence of competing monovalent hapten) over the time required to carry out a separation (retention time, tr˜15 min).
Validation of Size-Exclusion Chromatography (SE-HPLC) to Examine Aggregates of IgG. Size-exclusion chromatography (SE-HPLC) can resolve the cyclic aggregates of antibodies from each other and from monomeric IgG (FIG. 6). The commercially available purified IgG gave predominantly one peak by SE-HPLC (FIG. 6a) at a retention time (˜15.6 min) consistent with the size of monomeric IgG (˜150 kDa) based on a molecular weight calibration plot (FIG. 3). We formed aggregates in >90% conversion by incubating IgG (2 μM) with 5-10 equivalents of bi and trivalent molecules in chart 1 for 12 hours. […] These antibody aggregates dissociated rapidly (<1 min) in the presence of excess monovalent hapten (6) (1 μM anti-2,4-DNP; 1 μM 1; 1000 μM 6) (FIG. 6c).

Usually Kd stands for the constant that tells how readily two partners part at equilibrium. Regarding Ac2DNP-Lys, the dissociation constant Kd in experiment [1] came to 0.4 ± 0.08 nM.

On to 4-nitrophenyl [4-NP], for which the equilibrium dissociation constant (Kd) in experiment [2] is 500 nM and ~500 nM.

In the case of `NCCCC[C@H](Nc1ccc([N+](=O)[O-])cc1[N+](=O)[O-])C(=O)O` [compound 6, 2,4-dinitrophenyl lysine], the “time for dissociation of antibody aggregates by excess monovalent hapten” value in experiment [3] (1 μM anti-2,4-DNP, 1 μM 1, 1000 μM 6) is reported as less than 1 min. In experiment [3], the “dissociation of IgG aggregates by excess monovalent hapten” value is “completely dissociated”.

On to 2,4-dinitrophenyl [2,4-DNP], for which the Kd in experiment [2] (listed as DNP) was 8 nM and ~8 nM.

Take `O=[N+]([O-])c1ccc(OC2O[C@H](CO)[C@@H](O)[C@H](O)[C@H]2O)cc1` (stereo partly shown) [compound 7, 4-nitrophenylglucose]: the “dissociation of IgG aggregates by excess monovalent hapten” value in experiment [3] is given as “completely dissociated”. In experiment [2], the Kd was approximately 500 nM.
